Columns and labels:
[1] = generally observed, estimated; cited from earlier work
[2] = Fatty acid composition in plasma triglycerides of guinea pig pups after suckling/weaning diet; type: in vivo; settings: compared to the control group, Table 3
Description: (§1) This example investigates the effect of feeding diets supplemented or not with ARA to newborn guinea pig pups on the development of total fat mass of the pups in the post-weaning period. The infant guinea pig is considered to be a good animal model to study the development fat mass in human infants: Indeed, like newborn human infants, guinea pig pups are born with an appreciable amount of body fat whilst newborn rat and mice pups are very lean. Newborn male guinea pigs were divided into two groups with 20 animals per group. Each group was fed a suckling/weaning diet in which 44% of the energy was supplied by fat for 21 days. The different diets were isocaloric and differed only in their ARA contents. The ARA diet contained 1.5% ARA based on total fatty acids and the control diet contained no ARA. The group receiving ARA diet is coded “ARA diet” or “+AA” in the below and in the figures. The group receiving no ARA is coded “control diet” or −AA″ in the below and in the figures. The levels of linoleic acid and α-linolenic acid were kept relatively constant between the diets such that the ratio of linoleic acid to α-linolenic acid was about 35. […] Body weight and fat mass were recorded at days 21, 51, 79, 107, 128 and 136 and plasma fatty acid composition, and plasma insulin concentrations were recorded at day 21 and day 136.

[3] = test system: clonal preadipocytes; settings: compared to PPAR agonists or saturated, mono-unsaturated and n-3 polyunsaturated fatty acids; cited from earlier work
[4] = Fatty acid composition in plasma phospholipids of guinea pig pups after suckling/weaning diet; type: in vivo; settings: compared to the control group, Table 2
Description: as §1

| Compound | maximum amount of ARA in the diet that does not induce adverse effects [1] | incorporation of ARA in plasma triglycerides [2] | differentiation of clonal preadipocytes [3] | incorporation of ARA in plasma phospholipids [4] |
| --- | --- | --- | --- | --- |
| CCCCC/C=C\C/C=C\C/C=C\C/C=C\CCCC(=O)O [ARA, arachidonic acid (C20:4n-6)] | about 100 mg ARA/kg/day | higher | substantially promoted | higher |
| CCCCC[C@H](O)/C=C/[C@@H]1[C@H]2C/C(=C/CCCC(=O)O)C[C@H]2C[C@H]1O [carbacyclin, reference compound] |  |  | mimicked |  |

Reference: patent US9480671B2, “Reduction of risk of obesity” (Nestec S.A., priority 2009, dated 2016)
